Measured values reported in patent publication US9233961B2, “Compounds and compositions for the treatment of parasitic diseases” (Novartis AG, priority 2013, dated 2016).
Where two headings read alike, the source gives them in different places.

Experiments:
[1] = system: Leishmania donovani axenic amastigote parasites; assay: Leishmania donovani axenic amastigote proliferation assay; type: cell-based; conditions: read-out: L. donovani amastigotes EC50
Summary of the method: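 EC50 values come from CellTiter-Glo luminescence after 2-day compound exposure of axenic amastigotes (9600 per well) at 37 °C, 5% CO2. Medium: RPMI 1640, 20% heat-inactivated FBS, folic acid, adenosine, D-glucose, 25 mM MES, adjusted to pH 5.5.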

[2] = system: L. donovani HU3 strain in mouse peritoneal macrophages; assay: Assay for proliferation of Leishmania parasites in mouse peritoneal macrophages; type: cell-based, Leishmania donovani; conditions: Leishmania donovani, Peritoneal macrophage
Summary of the method: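 EC50 derives from counting SYBR Green-stained parasite nuclei by high-content imaging after 5 days' compound exposure. Host cells were uninfected BALB/c peritoneal macrophages, infected for 24 h before dosing with spleen-derived L. donovani HU3 parasites from mice infected 9–11 weeks.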

[3] = system: Trypanosoma brucei Lister 427 strain bloodstream form; assay: Assay for proliferation of kinetoplastid parasite Trypanosoma brucei; type: cell-based; conditions: read-out: T. brucei EC50
From the text: Assay for Proliferation of Kinetoplastid Parasite Trypanosoma brucei.
The proliferation is quantified by the addition of Cell Titer Glo (Promega®) a luminescent cell viability assay that measures the number of viable cells in culture based on the quantification of cellular ATP amount, which is an indicator of metabolically active cells.
The following assay illustrates the invention without in any way limiting the scope of the invention. This parasite proliferation assay measures the increase in parasite growth using an assay that measures ATP activity, Cell Titer Glo®.
Trypanosoma brucei Lister 427 strain is grown in HMI-9 Trypanosome media for T. brucei bloodstream form. 30 μl of HMI-9 media is dispensed into 384 well assay plates. 200 nl of compounds of the invention (in DMSO), including anti-trypanosome controls (Pentamidine and suramin), are then transferred into the assay plates, as well as DMSO alone to serve as a negative control for inhibition. Then 25 μl of a suspension of T. brucei culture in HMI-9 media is dispensed into the assay plates. The final concentration of parasites in culture corresponds to 1.7% of 0.5 uM ATP activity with Cell Titer Glo® in HMI-9 media. The plates are placed in a 37° C. incubator for 48 hours in an atmospheric environment containing 5% CO2. 40 μl of Cell Titer Glo® is dispensed into the plates. The plates are then read for luminescence. The percentage inhibition of 50%, EC50, is calculated for each compound.

[4] = read-out: L. donavani Macrophage EC50
[5] = Lister 427 bloodstream form, 48 hours

Compound | EC50 ([1]; axenic amastigotes in vitro) [µM] | EC50 [2, 4] [µM] | EC50 [3, 5] [µM] | EC50 ([2]; read-out: L. donavani Macrophage EC50 (μM)) [µM] | EC50 [1] [µM] | EC50 ([3]; 48 h) [µM]
Cc1cnc2nc(-c3cc(NC(=O)N4CCCC4)ccc3Cl)[nH]c2c1 [Compound 245] | 1.77 | 18.8 | 0.241 |  |  | 
Cc1cnc2nc(-c3cc(NC(=O)N4CCNC4=O)ccc3Cl)[nH]c2c1 [Compound 246] | > 25 | > 50 | > 25 |  |  | 
Cc1cnc2nc(-c3cc(NC(=O)NC(C)C)ccc3Cl)[nH]c2c1 [Compound 249] | > 25 | > 30 | 14.1 |  |  | 
Cc1cnc2nc(-c3cc(NS(=O)(=O)c4cccs4)ccc3Cl)[nH]c2c1 [Compound 251] | > 25 | > 50 | > 18.2 |  |  | 
Cc1cnc2nc(-c3cc(NS(=O)(=O)Cc4ccc(C(F)(F)F)cc4)ccc3Cl)[nH]c2c1 [Compound 252] | > 25 | > 50 | > 25 |  |  | 
Cc1cnc2nc(-c3cc(NS(=O)(=O)c4c(C)noc4C)ccc3Cl)[nH]c2c1 [Compound 253] | > 24.9 | > 28.4 | > 25 |  |  | 
Cc1cnc2nc(-c3cc(NS(=O)(=O)N4CCCCC4)ccc3Cl)[nH]c2c1 [Compound 254] | > 25 | > 50 | > 25 |  |  | 
Cc1cnc2nc(-c3cc(NS(=O)(=O)CC(C)C)ccc3Cl)[nH]c2c1 [Compound 255] | > 25 | > 50 | > 25 |  |  | 
Cc1cnc2nc(-c3cc(N4CCOCC4)ccc3Cl)[nH]c2c1 [Compound 257] | > 25 | > 50 | > 25 |  |  | 
Cc1cnc2nc(-c3cc(Nc4ccc(-n5cncn5)nc4)ccc3Cl)[nH]c2c1 [Compound 258] | > 25 | > 50 | > 15.4 |  |  | 
Cc1cnc2nc(-c3cc(Nc4ccc(N(C)C)cn4)ccc3Cl)[nH]c2c1 [Compound 259] | > 25 | > 50 | > 25 |  |  | 
Cc1cnc2nc(-c3cc(Nc4ccc(N5CCOCC5)cn4)ccc3Cl)[nH]c2c1 [Compound 260] | > 25 | 29.3 | 17.7 |  |  | 
Cc1cnc2nc(-c3cc(Nc4cccc5c4CCN(S(C)(=O)=O)C5)ccc3Cl)[nH]c2c1 [Compound 261] | > 25 | > 50 | 15.9 |  |  | 
Cc1ccc(Nc2ccc(Cl)c(-c3nc4ncc(C)cc4[nH]3)c2)nc1 [Compound 262] | > 25 | 13.5 | > 22.4 |  |  | 
Cc1cnc2nc(-c3cc(Nc4ccc(C#N)cn4)ccc3Cl)[nH]c2c1 [Compound 263] | > 25 | > 30.1 | > 25 |  |  | 
Cc1cnc2nc(-c3cc(Nc4cccnc4N4CCOCC4)ccc3Cl)[nH]c2c1 [Compound 264] | > 25 | > 32.3 | 11.7 |  |  | 

Compound | EC50 ([1]; axenic amastigotes in vitro) [µM] | EC50 [2, 4] [µM] | EC50 [3, 5] [µM] | EC50 ([2]; read-out: L. donavani Macrophage EC50 (μM)) [µM] | EC50 [1] [µM] | EC50 ([3]; 48 h) [µM]
Cc1cnc2nc(-c3cc(Nc4nccc5c4CCN(Cc4ccccc4)C5)ccc3Cl)[nH]c2c1 [Compound 265] | > 25 | 15.6 | 8.2 |  |  | 
O=C(Nc1ccc(Cl)c(-c2nc3ncc(C(F)(F)F)cc3[nH]2)c1)C1CCCC1 [Compound 282] | 17.5 | 3.3 | 11.2 |  |  | 
CNc1ccc(-c2cnc3nc(-c4cc(NC(=O)C5CCCC5)ccc4Cl)[nH]c3c2)cc1 [Compound 346] | 2.53 | 0.47 | 0.56 |  |  | 
CNc1ccc(-c2cnc3nc(-c4cc(NC(=O)c5cscn5)ccc4Cl)[nH]c3c2)cc1 [Compound 349] | 1.35 | 2.69 | 0.171 |  |  | 
CCOC(=O)Nc1ccc(Cl)c(-c2nc3ncc(-c4ccc5c(c4)CC(=O)N5)cc3[nH]2)c1 [Compound 378] | 0.69 | 3.3 | 0.02 |  |  | 
COC(=O)Nc1ccc(-c2cnc3nc(-c4cc(NC(=O)c5ccco5)ccc4Cl)oc3c2)cc1 [Compound 417] | 0.212 |  | 0.056 | 0.49 |  | 
Cc1cnc2nc(-c3cc(NC(=O)Cc4cccc(F)c4F)ccc3Cl)[nH]c2c1 [Example 78, N-(4-chloro-3-{6-methyl-1H-imidazo[4,5-b]pyridin-2-yl}phenyl)-2-(2,3-difluorophenyl)acetamide] | > 25 | > 50 | > 6.6 |  |  | 
Cc1cnc2nc(-c3cc(NC(=O)OCCF)ccc3Cl)[nH]c2c1 [Example 214, 2-Fluoroethyl N-(4-chloro-3-{6-methyl-1H-imidazo[4,5-b]pyridin-2-yl}phenyl)carbamate] |  | 27.5 |  |  | 8.4 | 2.25
Cc1cnc2nc(-c3cc(NC(=O)N4CCOCC4)ccc3Cl)[nH]c2c1 [Example 237, N-(4-chloro-3-{6-methyl-1H-imidazo[4,5-b]pyridin-2-yl}phenyl)morpholine-4-carboxamide] | > 25 | > 50 | 8.7 |  |  | 
Cc1cnc2nc(-c3cc(NC(=O)NC4CCC4)ccc3Cl)[nH]c2c1 [Example 247, 1-(4-Chloro-3-{6-methyl-1H-imidazo[4,5-b]pyridin-2-yl}phenyl)-3-cyclobutylurea] | > 25 | 26.9 | 6.4 |  |  | 
Cc1cnc2nc(-c3cc(NS(=O)(=O)Cc4ccccc4)ccc3Cl)[nH]c2c1 [Example 250, N-(4-chloro-3-{6-methyl-1H-imidazo[4,5-b]pyridin-2-yl}phenyl)-1-phenylmethanesulfonamide] | > 25 | > 50 | > 25 |  |  | 
Cc1cnc2nc(-c3cc(Nc4ccc(Cl)cc4)ccc3Cl)[nH]c2c1 [Example 256, 4-chloro-N-(4-chlorophenyl)-3-{6-methyl-1H-imidazo[4,5-b]pyridin-2-yl}aniline] | > 25 | > 50 | > 18.1 |  |  | 
Cc1cnc2nc(-c3cc(NCc4ccco4)ccc3Cl)[nH]c2c1 [Example 266, 4-chloro-N-(furan-2-ylmethyl)-3-{6-methyl-1H-imidazo[4,5-b]pyridin-2-yl}aniline] |  | > 40.5 |  |  | > 25 | > 25
N#Cc1cnc2nc(-c3cc(NC(=O)c4ccco4)ccc3Cl)[nH]c2c1 [Example 286, N-(4-chloro-3-{6-cyano-1H-imidazo[4,5-b]pyridin-2-yl}phenyl)furan-2-carboxamide] | 0.61 | 7.1 | 0.164 |  |  | 
CNc1ccc(-c2cnc3nc(-c4cc(NC(=O)c5cc(C)cs5)ccc4Cl)[nH]c3c2)cc1 [Example 345, N-(4-chloro-3-{6-[4-(methylamino)phenyl]-1H-imidazo[4,5-b]pyridin-2-yl}phenyl)-4-methylthiophene-2-carboxamide] | 1.97 | 1.35 | 0.277 |  |  | 
NCc1cnc2nc(-c3cc(NC(=O)c4ccco4)ccc3Cl)[nH]c2c1 [Example 352, N-{3-[6-(aminomethyl)-1H-imidazo[4,5-b]pyridin-2-yl]-4-chlorophenyl}furan-2-carboxamide] | 0.253 | 49.5 | 0.45 |  |  | 
